Values after ≈ are worked out from the molar mass of the structure shown. Active and inactive are the calls of the source. The calls are words filed in the database; no cut-off is given here.
Legend:
[1] = test system: Staphylococcus aureus; experiment: Antibacterial activity against methicillin resistant Staphylococcus aureus USA300 infected in BALB/c mouse wound model assessed as log reduction in wound bacterial load at 10 mg/kg, ip administered every 12 hrs for 3 times and measured after 48 hrs; format: functional
[2] = test system: Staphylococcus epidermidis; experiment: Antibacterial activity against methicillin resistant Staphylococcus epidermidis SE1457 infected in BALB/c mouse wound model assessed as log reduction in wound bacterial load at 10 mg/kg, ip administered every 12 hrs for 3 times and measured after 48 hrs; format: functional
[3] = test system: Enterococcus faecium; experiment: Antibacterial activity against Enterococcus faecium EFM64 by broth microdilution method; format: functional
[4] = test system: Staphylococcus epidermidis; experiment: Antibacterial activity against Staphylococcus epidermidis SE1457 by broth microdilution method; format: functional
[5] = test system: Enterococcus faecalis; experiment: Antibacterial activity against Enterococcus faecalis OG1RF by broth microdilution method; format: functional
[6] = test system: Staphylococcus aureus; experiment: Induction of matured biofilm eradication in methicillin resistant Staphylococcus aureus YUSA145 assessed as reduction in bacterial survival in biofilm at 8 times MIC incubated for 48 hrs by SYTO 9 staining based confocal fluorescence microscopic analysis; format: functional
[7] = test system: Staphylococcus aureus; experiment: Antibacterial activity against methicillin sensitive Staphylococcus aureus SA113 by broth microdilution method; format: functional
[8] = test system: Staphylococcus aureus; experiment: Bactericidal activity against Staphylococcus aureus USA300 assessed as planktonic cells killing by measuring log reduction in bacterial count at 8 times MIC measured after 24 hrs; format: functional, organism-based
[9] = test system: Staphylococcus aureus; experiment: Antibacterial activity against methicillin resistant Staphylococcus aureus USA300 by broth microdilution method; format: functional
[10] = test system: Staphylococcus epidermidis; experiment: Induction of matured biofilm eradication in Staphylococcus epidermidis SE1457 assessed as reduction in bacterial survival in biofilm at 8 times MIC incubated for 48 hrs by SYTO 9 staining based confocal fluorescence microscopic analysis; format: functional
[11] = test system: Staphylococcus epidermidis; experiment: Bactericidal activity against Staphylococcus epidermidis SE1457 assessed as planktonic cells killing by measuring log reduction in bacterial count at 8 times MIC measured after 24 hrs; format: functional, organism-based
[12] = test system: Staphylococcus epidermidis; experiment: Induction of resistance development in Staphylococcus epidermidis SE1457 assessed as fold increase in MIC at 1/2 MIC incubated for 16 hrs after 20 serial passages; format: functional
[13] = test system: Staphylococcus aureus; experiment: Induction of resistance development in methicillin sensitive Staphylococcus aureus SA113 assessed as fold increase in MIC at 1/2 MIC incubated for 16 hrs after 20 serial passages; format: functional
[14] = Hemolytic activity against human erythrocytes measured after 1 hr; format: toxicity, cell-based, Erythrocyte
[15] = Cytotoxicity against human LX2 cells incubated for 24 hrs by CCK8 assay; format: toxicity, cell-based; conditions: LX-2 cells
[16] = target: T1, Sensor protein kinase WalK (Staphylococcus aureus, UniProt Q9RDT3); experiment: Inhibition of Staphylococcus aureus YycG expressed in Escherichia coli preincubated for 30 mins followed by ATP addition and measured after 30 mins by kinase-Glo luminescent assay
T1 sequence (Q9RDT3 whole entry): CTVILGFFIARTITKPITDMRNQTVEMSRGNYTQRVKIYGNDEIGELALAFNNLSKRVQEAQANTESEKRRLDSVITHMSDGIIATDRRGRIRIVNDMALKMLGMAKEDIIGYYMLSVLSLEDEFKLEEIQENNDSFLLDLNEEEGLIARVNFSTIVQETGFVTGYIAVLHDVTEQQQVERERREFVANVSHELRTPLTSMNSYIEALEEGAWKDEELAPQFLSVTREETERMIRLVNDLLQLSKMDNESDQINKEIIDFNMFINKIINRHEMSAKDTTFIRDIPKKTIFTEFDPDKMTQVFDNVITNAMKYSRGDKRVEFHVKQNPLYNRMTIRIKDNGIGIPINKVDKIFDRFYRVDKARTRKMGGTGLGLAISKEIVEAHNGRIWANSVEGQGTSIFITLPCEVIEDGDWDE

[17] = test system: Staphylococcus aureus; experiment: Antibacterial activity against methicillin resistant Staphylococcus aureus USA300 infected in BALB/c mouse pneumonia model assessed as increase in mouse survival rate at 20 mg/kg, ip administered every 12 hrs for 3 times and measured after 48 hrs; format: functional, organism-based
[18] = test system: Staphylococcus aureus; experiment: Antibacterial activity against methicillin resistant Staphylococcus aureus USA300 infected in BALB/c mouse pneumonia model assessed as log reduction in lung bacterial count at 20 mg/kg, ip administered every 12 hrs for 3 times and measured after 48 hrs; format: functional

SMILES | MIC [3] | MIC [4] | MIC [5] | MIC [7] | HC50 at 1 h [14] | CC50 at 24 h [15] | also measured
CCCCCCCCCC(=O)N[C@@H](Cc1c[nH]c2ccccc12)C(=O)N[C@H](CC(N)=O)C(=O)N[C@@H](CC(=O)O)C(=O)N[C@@H]1C(=O)NCC(=O)N[C@@H](CCCN)C(=O)N[C@@H](CC(=O)O)C(=O)N[C@H](C)C(=O)N[C@@H](CC(=O)O)C(=O)NCC(=O)N[C@H](CO)C(=O)N[C@@H]([C@H](C)CC(=O)O)C(=O)N[C@@H](CC(=O)c2ccccc2N)C(=O)O[C@@H]1C | 2 µM (≈ 3.24 µg/mL) | 2 µM (≈ 3.24 µg/mL) | 2 µM (≈ 3.24 µg/mL) | 2 µM (≈ 3.24 µg/mL) | – | – | log(activity) [1]: 1; log(activity) [2]: 1; Activity [6]: <50%; Activity [8]: inactive; MIC [9]: 2 µg/mL (≈ 1.23 µM); Activity [10]: <50%; Activity [11]: inactive
CC(=O)NC[C@H]1CN(c2ccc(N3CCOCC3)c(F)c2)C(=O)O1 | – | – | – | – | – | – | fold change (FC) [12]: 4; fold change (FC) [13]: 4
O=C(C1=C(O)C(=O)N(c2nnc(SCc3ccccc3Cl)s2)C1c1ccccc1O)c1cc2ccccc2s1 (stereo unspecified) | > 100 µM | > 100 µM | > 100 µM | > 100 µM | > 200 µM | > 100 µM | –
O=C(C1=C(O)C(=O)N(c2nnc(SCc3ccccc3Cl)s2)C1c1cccc(O)c1)c1cc2ccccc2o1 (stereo unspecified) | > 100 µM | > 100 µM | > 100 µM | > 100 µM | > 200 µM | > 100 µM | –
O=C(C1=C(O)C(=O)N(c2nnc(SCc3ccccc3Cl)s2)C1c1ccccc1)c1cc2ccccc2o1 (stereo unspecified) | > 100 µM | > 100 µM | > 100 µM | > 100 µM | > 200 µM | > 100 µM | –
O=C(C1=C(O)C(=O)N(c2nnc(SCc3ccccc3)s2)C1c1cccc(O)c1O)c1cc2ccccc2o1 (stereo unspecified) | 25 µM (≈ 13.9 µg/mL) | 50 µM (≈ 27.9 µg/mL) | 25 µM (≈ 13.9 µg/mL) | 50 µM (≈ 27.9 µg/mL) | > 200 µM | > 100 µM | –
O=C(C1=C(O)C(=O)N(c2nnc(SCc3ccccc3)s2)C1c1ccccc1O)c1ccc(C(F)(F)F)cc1 (stereo unspecified) | > 100 µM | > 100 µM | > 100 µM | > 100 µM | > 200 µM | > 100 µM | –
COc1cc(C2C(C(=O)c3cc4ccccc4o3)=C(O)C(=O)N2c2nnc(SCc3ccccc3)s2)ccc1O (stereo unspecified) | > 100 µM | > 100 µM | > 100 µM | > 100 µM | > 200 µM | > 100 µM | –
O=C(C1=C(O)C(=O)N(c2nnc(SCc3ccccc3)s2)C1c1ccc(O)c(O)c1)c1cc2ccccc2o1 (stereo unspecified) | > 100 µM | > 100 µM | > 100 µM | > 100 µM | > 200 µM | > 100 µM | –
O=C(C1=C(O)C(=O)N(c2nnc(SCc3ccccc3Cl)s2)C1c1ccc(O)cc1)c1cc2ccccc2o1 (stereo unspecified) | > 100 µM | 50 µM (≈ 28.8 µg/mL) | > 100 µM | 100 µM (≈ 57.6 µg/mL) | > 200 µM | > 100 µM | –
COc1cc(C2C(C(=O)c3cc4ccccc4o3)=C(O)C(=O)N2c2nnc(SCc3ccccc3Cl)s2)ccc1O (stereo unspecified) | > 100 µM | 25 µM (≈ 15.2 µg/mL) | > 100 µM | > 100 µM | > 200 µM | > 100 µM | IC50 [16]: 46.1 µM
O=C(C1=C(O)C(=O)N(c2nnc(SCc3cccc(Cl)c3)s2)C1c1ccccc1O)c1cc2ccccc2o1 (stereo unspecified) | 25 µM (≈ 14.4 µg/mL) | 25 µM (≈ 14.4 µg/mL) | 25 µM (≈ 14.4 µg/mL) | 50 µM (≈ 28.8 µg/mL) | > 200 µM | > 100 µM | –
O=C(C1=C(O)C(=O)N(c2nnc(SCc3ccccc3Cl)s2)C1c1ccc(O)c(Br)c1)c1cc2ccccc2o1 (stereo unspecified) | > 100 µM | > 100 µM | > 100 µM | > 100 µM | > 200 µM | > 100 µM | –
O=C(O)COc1ccc(C2C(C(=O)c3cc4ccccc4o3)=C(O)C(=O)N2c2nnc(SCc3ccccc3Cl)s2)cc1 (stereo unspecified) | > 100 µM | > 100 µM | > 100 µM | > 100 µM | > 200 µM | > 100 µM | –
O=C(C1=C(O)C(=O)N(c2nnc(SCc3ccccc3)s2)C1c1ccccc1O)c1cc2ccccc2s1 (stereo unspecified) | > 100 µM | > 100 µM | > 100 µM | > 100 µM | > 200 µM | > 100 µM | –
O=C(C1=C(O)C(=O)N(c2nnc(SCc3ccc(Cl)cc3)s2)C1c1ccccc1O)c1cc2ccccc2o1 (stereo unspecified) | 50 µM (≈ 28.8 µg/mL) | 25 µM (≈ 14.4 µg/mL) | 50 µM (≈ 28.8 µg/mL) | 25 µM (≈ 14.4 µg/mL) | > 200 µM | > 100 µM | –
O=C(C1=C(O)C(=O)N(c2nnc(SCc3ccccc3)s2)C1c1ccccc1O)c1ccc(F)cc1 (stereo unspecified) | > 100 µM | > 100 µM | > 100 µM | > 100 µM | > 200 µM | > 100 µM | –
COc1ccc(O)c(C2C(C(=O)c3cc4ccccc4o3)=C(O)C(=O)N2c2nnc(SCc3ccccc3Cl)s2)c1 (stereo unspecified) | 100 µM (≈ 60.6 µg/mL) | 50 µM (≈ 30.3 µg/mL) | 100 µM (≈ 60.6 µg/mL) | 50 µM (≈ 30.3 µg/mL) | > 200 µM | > 100 µM | –
CN[C@H](CC(C)C)C(=O)N[C@H]1C(=O)N[C@@H](CC(N)=O)C(=O)N[C@H]2C(=O)N[C@H]3C(=O)N[C@H](C(=O)N[C@H](C(=O)O)c4cc(O)cc(O)c4-c4cc3ccc4O)[C@H](O)c3ccc(c(Cl)c3)Oc3cc2cc(c3O[C@@H]2O[C@H](CO)[C@@H](O)[C@H](O)[C@H]2O[C@H]2C[C@](C)(N)[C@H](O)[C@H](C)O2)Oc2ccc(cc2Cl)[C@H]1O [VANCOMYCIN] | – | – | – | – | – | – | Activity [17]: Active; log(activity) [18]: 2
O=C(C1=C(O)C(=O)N(c2nnc(SCc3ccccc3)s2)C1c1ccccc1O)c1ccc([N+](=O)[O-])cc1 (stereo unspecified) | > 100 µM | > 100 µM | > 100 µM | > 100 µM | > 200 µM | > 100 µM | –
COc1ccc(C(=O)C2=C(O)C(=O)N(c3nnc(SCc4ccccc4)s3)C2c2ccccc2O)cc1 (stereo unspecified) | > 100 µM | > 100 µM | > 100 µM | > 100 µM | > 200 µM | > 100 µM | –
COC(=O)COc1ccc(C2C(C(=O)c3cc4ccccc4o3)=C(O)C(=O)N2c2nnc(SCc3ccccc3Cl)s2)cc1 (stereo unspecified) | > 100 µM | > 100 µM | > 100 µM | > 100 µM | > 200 µM | > 100 µM | –
O=C(C1=C(O)C(=O)N(c2nnc(SCc3ccccc3)s2)C1c1ccc(O)cc1O)c1cc2ccccc2o1 (stereo unspecified) | > 100 µM | > 100 µM | > 100 µM | > 100 µM | > 200 µM | > 100 µM | –
